# Measured values taken from US11952365B2, “Anti-viral compounds” (Aligos Therapeutics, Inc., priority 2020, dated 2024).
# Read-outs that look alike come from different tables or passages of the source.
# Assays:
# [1] = target: HRV3C (Human rhinovirus 14, UniProt P03303); experiment: HRV3C protease assay (duplex, SAMDI-MS); format: biochemical, HRV; details: 30 mins preincubation
# Outline: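 Compounds are preincubated 30 min with the protease pair before substrate addition, and cleavage proceeds 30 min at room temperature. Product peptides are measured by SAMDI-MS relative to internal standards, with IC50 obtained from a four-parameter fit.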
# [2] = system: human beta-coronavirus OC43; experiment: microbe, parasite or virus in culture; format: cell-based; details: Betacoronavirus 1, OC43, HeLa, 144 h, OC43 in HeLa cells, 6 days at 33° C., class symbols; read-out: EC50
# [3] = Cytotoxicity plates without OC43 virus (cell-titer-glo); format: cell-based, human; details: human; HeLa cells without OC43 virus, class symbols
# Outline: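 Run as a virus-free counterpart of the OC43 cytopathic-effect assay. Attached HeLa cells received compound dilutions in EMEM with 2% FBS and were kept 6 days at 33 °C. Cell viability was then measured by CellTiter-Glo luminescence.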
# [4] = system: SARS-CoV-2-GHB-03021/2020; experiment: SARS-CoV-2 Infection Model in Huh7 Cells; format: cell-based; details: Severe acute respiratory syndrome coronavirus 2, Huh-7, 96 h, SARS-CoV-2, day 4 p.i., MTS, class symbols
# [5] = system: SARS-CoV-2-GHB-03021/2020; experiment: microbe, parasite or virus in culture; format: cell-based; details: Severe acute respiratory syndrome coronavirus 2, Vero C1008, 96 h; read-out: VeroE6 + CP (EC50)
# [6] = target: T1, human cathepsin L (Homo sapiens, UniProt P07711); experiment: cathepsin L assay; format: biochemical; details: 10 pM human cathepsin L, Z-FR-AMC 2 μM, class symbols
# T1 construct: purchased R&D Systems
# Outline: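 Reactions began by adding 2 μM (final) Z-FR-AMC substrate to 10 pM human cathepsin L that had been preincubated 30 min with inhibitor. Kinetic AMC fluorescence at 355/460 nm over 30 min at 2-min intervals; four-parameter fitting gave IC50 values.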
# [7] = in vitro; details: human
# [8] = in vitro; details: African green monkey, VeroE6 + CP (CC50), Vero E6-eGFP cells with CP-100356, absence of virus, MTS
# [9] = target: 3CLpro (Severe acute respiratory syndrome coronavirus 2, UniProt P0DTD1); experiment: SARS-CoV-2 3CLpro protease assay (duplex, SAMDI-MS); format: biochemical; parameters: For the duplex assay, 3CLpro and HRV3C was added; details: 3CLpro, 30 mins preincubation, class symbols; read-out: SARS-Cov-2 IC50
# [10] = HRV3C, class symbols, read-out: HRV IC50
SMILES,"IC50 [1, 10]",EC50 [2],CC50 at 6 days [3],EC50 [4],EC50 [5],IC50 [6],CC50 [7],CC50 ([8]; numeric bounds),IC50 [9],"IC50 ([1]; HRV3C, bound, read-out: HRV IC50)","IC50 ([1]; HRV IC50, HRV3C, bound)",CC50 ([8]; class symbols)
CC[C@@H]1C[C@@H](C(=O)N[C@@H](C[C@@H]2CCNC2=O)C(=O)C(=O)NCc2ccccc2)N(C(=O)c2cc3ccccc3[nH]2)C1 [Compound 28],2 to 20 µM,0.1 to 1 µM,> 10 µM,< 1 µM,1 to 10 µM,< 0.1 µM,> 10 µM,> 100 µM,0.2 to 2 µM,–,–,–
"COc1cccc2[nH]c(C(=O)N3C[C@]4(C[C@H]3C(=O)NC(C=O)C[C@@H]3CCCNC3=O)CC4(F)F)cc12 (stereo partly drawn) [Compound 29, (3S,6S)-1,1-difluoro-5-(4-methoxy-1H-indole-2-carbonyl)-N-(1-oxo-3-((S)-2-oxopiperidin-3-yl)propan-2-yl)-5-azaspiro[2.4]heptane-6-carboxamide]",0.02 to 0.2 µM,1 to 10 µM,> 10 µM,1 to 10 µM,1 to 10 µM,0.1 to 1 µM,> 100 µM,> 100 µM,0.02 to 0.2 µM,–,–,–
C=C[C@@H]1C[C@@H](C(=O)N[C@@H](C[C@@H]2CCNC2=O)C(=O)C(=O)NCc2ccccc2)N(C(=O)c2cc3ccccc3[nH]2)C1 [Compound 30],0.2 to 2 µM,0.1 to 1 µM,> 10 µM,1 to 10 µM,1 to 10 µM,< 0.1 µM,> 100 µM,> 100 µM,0.02 to 0.2 µM,–,–,–
"COc1cccc2[nH]c(C(=O)N3CC4(CC4)C[C@H]3C(=O)N[C@@H](C[C@@H]3CCNC3=O)C(=O)CO)cc12 [Compound 31, (6S)—N-[(2S)-4-hydroxy-3-oxo-1-[(3S)-2-oxopyrrolidin-3-yl]butan-2-yl]-5-(4-methoxy-1H-indole-2-carbonyl)-5-azaspiro[2.4]heptane-6-carboxamide]",20 to 100 µM,0.1 to 1 µM,> 10 µM,10 to 100 µM,1 to 10 µM,≥ 10 µM,> 100 µM,> 100 µM,< 0.02 µM,–,–,–
COc1cccc2[nH]c(C(=O)N3C[C@H](c4ccccc4)C[C@H]3C(=O)N[C@@H](C[C@@H]3CCNC3=O)C(=O)CO)cc12 [Compound 32],0.2 to 2 µM,0.1 to 1 µM,> 10 µM,1 to 10 µM,1 to 10 µM,≥ 10 µM,> 100 µM,> 100 µM,0.02 to 0.2 µM,–,–,–
"COc1cccc2[nH]c(C(=O)N3C[C@]4(C[C@H]3C(=O)NC(C[C@@H]3CCCNC3=O)C(=O)C(=O)NCc3ccccc3)CC4(F)F)cc12 (stereo partly drawn) [Compound 33, N-benzyl-3-{[(3S,6S)-1,1-difluoro-5-(4-methoxy-1H-indole-2-carbonyl)-5-azaspiro[2.4]heptan-6-yl]formamido}-2-oxo-4-[(3S)-2-oxopiperidin-3-yl]butanamide]",0.2 to 2 µM,0.1 to 1 µM,> 10 µM,1 to 10 µM,< 1 µM,0.1 to 1 µM,> 100 µM,> 100 µM,0.02 to 0.2 µM,–,–,–
COc1cccc2[nH]c(C(=O)N3C[C@]4(C[C@H]3C(=O)N[C@@H](C[C@@H]3CCCNC3=O)C(=O)C(=O)NC(C)C)CC4(F)F)cc12 [Compound 34],0.2 to 2 µM,0.1 to 1 µM,> 10 µM,10 to 100 µM,1 to 10 µM,≥ 10 µM,> 100 µM,> 100 µM,0.02 to 0.2 µM,–,–,–
O=C(NCc1ccccc1)C(=O)[C@H](C[C@@H]1CCNC1=O)NC(=O)[C@@H]1[C@H]2CCC[C@H]2CN1C(=O)c1nc2ccccc2[nH]1 [Compound 35],2 to 20 µM,1 to 10 µM,> 10 µM,10 to 100 µM,10 to 100 µM,≥ 10 µM,> 100 µM,> 100 µM,0.02 to 0.2 µM,–,–,–
"COc1cccc2[nH]c(C(=O)N3C[C@@H]4CCC[C@@H]4[C@H]3C(=O)NC(C[C@@H]3CCNC3=O)C(=O)C(=O)NCc3ccccc3)nc12 (stereo partly drawn) [Compound 36, 3-[[(1S,3aR,6aS)-2-(4-methoxy-1H-1,3-benzodiazole-2-carbonyl)-hexahydro-1H-cyclopenta[c]pyrrol-1-yl]formamido]-N-benzyl-2-oxo-4-[(3S)-2-oxopyrrolidin-3-yl]butanamide]",20 to 100 µM,10 to 100 µM,> 10 µM,10 to 100 µM,10 to 100 µM,≥ 10 µM,> 100 µM,> 100 µM,0.02 to 0.2 µM,–,–,–
"COc1cccc2[nH]c(C(=O)N3C[C@]4(C[C@H]3C(=O)NC(C[C@@H]3CCCNC3=O)C(=O)C(=O)NC3CC3)CC4(F)F)cc12 (stereo partly drawn) [Compound 38, N-cyclopropyl-3-{[(3S,6S)-1,1-difluoro-5-(4-methoxy-1H-indole-2-carbonyl)-5-azaspiro[2.4]heptan-6-yl]formamido}-2-oxo-4-[(3S)-2-oxopiperidin-3-yl]butanamide]",0.2 to 2 µM,0.1 to 1 µM,> 10 µM,1 to 10 µM,1 to 10 µM,< 0.1 µM,> 100 µM,> 100 µM,0.02 to 0.2 µM,–,–,–
COc1cccc2[nH]c(C(=O)N3C[C@]4(C[C@H]3C(=O)N[C@@H](C[C@@H]3CCNC3=O)C(=O)CO)CC4(F)F)cc12 [Compound 39],–,0.1 to 1 µM,> 10 µM,1 to 10 µM,1 to 10 µM,≥ 10 µM,> 100 µM,> 100 µM,0.02 to 0.2 µM,> 10 µM,–,–
"O=C(NCc1ccccc1)C(=O)C(C[C@@H]1CCNC1=O)NC(=O)[C@@H]1C[C@@H](C2CC2)CN1C(=O)c1cc2ccccc2[nH]1 (stereo partly drawn) [Compound 40, N-benzyl-3-{[(2S,4S)-4-cyclopropyl-1-(1H-indole-2-carbonyl)pyrrolidin-2-yl]formamido}-2-oxo-4-[(3S)-2-oxopyrrolidin-3-yl]butanamide]",0.2 to 2 µM,0.1 to 1 µM,> 10 µM,1 to 10 µM,1 to 10 µM,0.1 to 1 µM,> 10 µM,> 100 µM,0.2 to 2 µM,–,–,–
"COc1cccc2[nH]c(C(=O)N3CC4(CC4)C[C@H]3C(=O)N[C@@H](C[C@@H]3CCCNC3=O)C(=O)CO)cc12 [Compound 42, (S)—N—((S)-4-hydroxy-3-oxo-1-((S)-2-oxopiperidin-3-yl)butan-2-yl)-5-(4-methoxy-1H-indole-2-carbonyl)-5-azaspiro[2.4]heptane-6-carboxamide]",2 to 20 µM,0.1 to 1 µM,> 10 µM,1 to 10 µM,1 to 10 µM,≥ 10 µM,> 100 µM,> 100 µM,0.02 to 0.2 µM,–,–,–
COc1cccc2[nH]c(C(=O)N3C[C@H]4[C@@H]([C@H]3C(=O)N[C@@H](C[C@@H]3CCNC3=O)C(=O)CO)C4(C)C)cc12 [Compound 43],–,0.1 to 1 µM,> 10 µM,1 to 10 µM,1 to 10 µM,≥ 10 µM,> 100 µM,> 100 µM,0.02 to 0.2 µM,–,> 10 µM,–
COc1cccc2[nH]c(C(=O)N3CCC4(CC4)C[C@H]3C(=O)N[C@@H](C[C@@H]3CCCNC3=O)C(=O)CO)cc12 [Compound 44],–,1 to 10 µM,> 10 µM,10 to 100 µM,10 to 100 µM,≥ 10 µM,> 10 µM,> 100 µM,0.02 to 0.2 µM,–,> 10 µM,–
COc1cccc2[nH]c(C(=O)N3C[C@H](C(F)(F)F)C[C@H]3C(=O)N[C@@H](C[C@@H]3CCCNC3=O)C(=O)COCc3ccccc3)cc12 [Compound 45A],2 to 20 µM,0.1 to 1 µM,> 10 µM,1 to 10 µM,1 to 10 µM,≥ 10 µM,> 10 µM,–,0.02 to 0.2 µM,–,–,> 10 µM
COc1cccc2[nH]c(C(=O)N3C[C@H](C(F)(F)F)C[C@H]3C(=O)N[C@@H](C[C@@H]3CCCNC3=O)C(=O)CO)cc12 [Compound 45],2 to 20 µM,0.1 to 1 µM,> 10 µM,1 to 10 µM,< 1 µM,≥ 10 µM,> 100 µM,> 100 µM,0.02 to 0.2 µM,–,–,–
